Literature values, collected in patent publication US20050043369A1, “Bactericidal antimicrobial methods and compositions for use in treating gram positive infections” (Protez Pharmaceuticals Inc., priority 2000, published 2005).

Test system: S. aureus (SA1199)
Conditions: vancomycin; Jeffrey et al., 1999; cited from earlier work

CN[C@H](CC(C)C)C(=O)N[C@H]1C(=O)N[C@@H](CC(N)=O)C(=O)N[C@H]2C(=O)N[C@H]3C(=O)N[C@H](C(=O)N[C@H](C(=O)O)c4cc(O)cc(O)c4-c4cc3ccc4O)[C@H](O)c3ccc(c(Cl)c3)Oc3cc2cc(c3O[C@@H]2O[C@H](CO)[C@@H](O)[C@H](O)[C@H]2O[C@H]2C[C@](C)(N)[C@H](O)[C@H](C)O2)Oc2ccc(cc2Cl)[C@H]1O [vancomycin]
time to decrease the viability of S. aureus by 1000-fold: 4 to 8 h
